Test in all cases: Kinase selectivity, scanMAX Kinase assay panel (DiscoverX), % control at 1 uM
Common to all, as to assay type: binding

In assay [1] the target is T1, scanMAX Kinase assay panel (Homo sapiens, UniProt P21127).
T1 construct: purchased DiscoverX
The following applies: CDC2L1; 1 uM; read-out: Percent Control (%). The method, boiled down: (§1)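 Compounds were tested at 1 uM in DMSO against each enzyme in the panel. Percent control was calculated as (compound − positive control)/(negative control − positive control) × 100, and a compound was scored active on a kinase when this value fell below 35.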

Assay [2] concerns the target T2, scanMAX Kinase assay panel (Homo sapiens, UniProt P36888, D835V).
T2 construct: purchased DiscoverX
T2 sequence (P36888 27-993 D835V): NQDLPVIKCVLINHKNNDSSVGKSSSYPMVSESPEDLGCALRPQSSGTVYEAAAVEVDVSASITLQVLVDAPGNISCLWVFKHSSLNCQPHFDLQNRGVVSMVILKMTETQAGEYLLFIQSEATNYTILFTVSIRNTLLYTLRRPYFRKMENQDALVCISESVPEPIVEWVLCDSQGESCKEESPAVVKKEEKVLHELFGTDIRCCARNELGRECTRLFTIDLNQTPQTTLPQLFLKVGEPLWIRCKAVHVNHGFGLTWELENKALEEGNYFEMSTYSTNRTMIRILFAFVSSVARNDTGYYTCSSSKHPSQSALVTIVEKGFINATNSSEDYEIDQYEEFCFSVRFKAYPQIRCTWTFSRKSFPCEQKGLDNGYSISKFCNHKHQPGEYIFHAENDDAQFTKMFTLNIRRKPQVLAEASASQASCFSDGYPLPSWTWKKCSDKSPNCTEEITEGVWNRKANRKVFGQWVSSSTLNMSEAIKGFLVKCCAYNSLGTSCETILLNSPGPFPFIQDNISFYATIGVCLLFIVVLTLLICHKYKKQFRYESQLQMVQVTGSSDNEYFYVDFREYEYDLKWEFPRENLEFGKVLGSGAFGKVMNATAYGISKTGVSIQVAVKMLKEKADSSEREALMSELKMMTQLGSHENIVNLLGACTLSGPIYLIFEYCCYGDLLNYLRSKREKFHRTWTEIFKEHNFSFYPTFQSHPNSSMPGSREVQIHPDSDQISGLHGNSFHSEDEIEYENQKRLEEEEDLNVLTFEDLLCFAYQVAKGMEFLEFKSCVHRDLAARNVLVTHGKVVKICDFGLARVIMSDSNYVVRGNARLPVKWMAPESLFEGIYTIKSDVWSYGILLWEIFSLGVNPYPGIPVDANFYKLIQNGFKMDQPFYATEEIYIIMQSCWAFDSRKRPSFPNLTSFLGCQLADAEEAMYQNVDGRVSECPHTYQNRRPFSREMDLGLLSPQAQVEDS
The note with it: FLT3 (D835V); 1 uM; read-out: Percent Control (%). In a few lines:
as §1

In assay [3] the target is T3, scanMAX Kinase assay panel (Homo sapiens, UniProt P48729).
T3 construct: purchased DiscoverX
The note with it: CSNK1A1; 1 uM; read-out: Percent Control (%). In a few lines: as §1

For assay [4], the target named is T4, scanMAX Kinase assay panel (Homo sapiens, UniProt P52564).
T4 construct: purchased DiscoverX
T4 sequence (P52564 1-334): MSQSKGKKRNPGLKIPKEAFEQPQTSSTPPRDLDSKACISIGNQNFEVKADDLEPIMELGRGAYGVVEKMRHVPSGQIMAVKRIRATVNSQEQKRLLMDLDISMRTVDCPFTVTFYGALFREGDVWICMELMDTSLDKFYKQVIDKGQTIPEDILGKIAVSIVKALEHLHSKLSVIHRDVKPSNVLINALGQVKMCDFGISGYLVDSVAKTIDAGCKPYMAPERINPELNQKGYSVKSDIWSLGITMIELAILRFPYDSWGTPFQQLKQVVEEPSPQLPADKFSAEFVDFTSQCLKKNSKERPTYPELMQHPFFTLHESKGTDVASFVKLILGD
The note with it: MEK6; 1 uM; read-out: Percent Control (%). In a few lines: as §1

Assay [5] concerns the target T5, scanMAX Kinase assay panel (Homo sapiens, UniProt Q02779).
T5 construct: purchased DiscoverX
The note with it: MLK2; 1 uM; read-out: Percent Control (%). In a few lines: as §1

In assay [6] the target is T6, scanMAX Kinase assay panel (Homo sapiens, UniProt Q15569).
T6 construct: purchased DiscoverX
The following applies: TESK1; 1 uM; read-out: Percent Control (%). In a few lines:
as §1

Assay [7] deals with T7, scanMAX Kinase assay panel (Homo sapiens, UniProt Q8N752).
T7 construct: purchased DiscoverX
T7 sequence (Q8N752 1-337): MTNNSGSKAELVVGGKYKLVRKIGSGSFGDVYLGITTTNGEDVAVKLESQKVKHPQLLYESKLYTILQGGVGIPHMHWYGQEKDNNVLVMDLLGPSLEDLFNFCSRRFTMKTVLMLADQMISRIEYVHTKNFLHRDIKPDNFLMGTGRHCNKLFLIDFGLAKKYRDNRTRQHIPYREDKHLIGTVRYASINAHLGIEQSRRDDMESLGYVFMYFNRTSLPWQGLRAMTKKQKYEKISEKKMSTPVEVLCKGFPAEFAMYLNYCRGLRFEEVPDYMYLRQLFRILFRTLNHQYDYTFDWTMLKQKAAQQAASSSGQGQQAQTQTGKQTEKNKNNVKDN
The following applies: CSNK1A1L; 1 uM; read-out: Percent Control (%). The method, boiled down:
as §1

The target in assay [8] is T8, scanMAX Kinase assay panel (Homo sapiens, UniProt Q9UK32).
T8 construct: purchased DiscoverX
The following applies: 1 uM, read-out: Percent Control (%). In a few lines: as §1

The values below come from US10870647B2, “Imidazopyridine derivative, method for preparing same, and pharmaceutical composition containing same as active ingredient for preventing or treating cancer” (DAEGU-GYEONGBUK MEDICAL INNOVATION FOUNDATION, priority 2016, dated 2020).

Like-named read-outs stand apart in the source and are kept apart here.

T3 sequence (P48729 whole entry): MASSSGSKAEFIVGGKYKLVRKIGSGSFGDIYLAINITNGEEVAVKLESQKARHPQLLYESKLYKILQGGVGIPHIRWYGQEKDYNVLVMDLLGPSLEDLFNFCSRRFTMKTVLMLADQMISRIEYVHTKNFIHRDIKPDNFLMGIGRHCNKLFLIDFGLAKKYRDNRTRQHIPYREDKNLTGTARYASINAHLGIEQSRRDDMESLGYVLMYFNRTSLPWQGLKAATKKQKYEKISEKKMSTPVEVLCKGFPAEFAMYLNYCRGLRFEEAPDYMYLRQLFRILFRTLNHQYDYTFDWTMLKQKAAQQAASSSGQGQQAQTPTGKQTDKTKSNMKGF
T5 sequence (Q02779 whole entry): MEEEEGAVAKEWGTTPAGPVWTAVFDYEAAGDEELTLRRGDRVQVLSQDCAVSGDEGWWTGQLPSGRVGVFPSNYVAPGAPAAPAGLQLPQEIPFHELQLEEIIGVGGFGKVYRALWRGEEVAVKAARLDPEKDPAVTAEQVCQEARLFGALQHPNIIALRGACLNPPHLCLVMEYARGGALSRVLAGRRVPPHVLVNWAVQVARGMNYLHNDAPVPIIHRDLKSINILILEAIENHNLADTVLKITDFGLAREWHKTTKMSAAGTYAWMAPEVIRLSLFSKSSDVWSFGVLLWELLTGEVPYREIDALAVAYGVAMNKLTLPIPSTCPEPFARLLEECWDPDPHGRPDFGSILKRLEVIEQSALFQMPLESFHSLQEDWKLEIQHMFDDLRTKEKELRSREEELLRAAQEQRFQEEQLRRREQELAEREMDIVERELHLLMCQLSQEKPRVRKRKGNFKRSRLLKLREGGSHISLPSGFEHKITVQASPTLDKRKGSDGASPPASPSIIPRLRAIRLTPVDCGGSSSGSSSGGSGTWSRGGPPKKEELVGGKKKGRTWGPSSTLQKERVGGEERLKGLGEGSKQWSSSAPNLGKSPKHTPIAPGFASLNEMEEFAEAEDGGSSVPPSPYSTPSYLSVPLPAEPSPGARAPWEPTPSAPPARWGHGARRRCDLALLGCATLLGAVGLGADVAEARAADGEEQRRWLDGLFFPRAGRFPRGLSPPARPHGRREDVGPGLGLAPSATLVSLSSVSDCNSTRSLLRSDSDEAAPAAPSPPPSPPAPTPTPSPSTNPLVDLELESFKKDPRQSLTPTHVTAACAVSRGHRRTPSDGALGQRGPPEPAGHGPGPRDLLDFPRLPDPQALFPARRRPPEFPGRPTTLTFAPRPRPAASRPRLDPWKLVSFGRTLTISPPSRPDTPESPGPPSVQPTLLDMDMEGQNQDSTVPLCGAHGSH
T8 sequence (Q9UK32 whole entry): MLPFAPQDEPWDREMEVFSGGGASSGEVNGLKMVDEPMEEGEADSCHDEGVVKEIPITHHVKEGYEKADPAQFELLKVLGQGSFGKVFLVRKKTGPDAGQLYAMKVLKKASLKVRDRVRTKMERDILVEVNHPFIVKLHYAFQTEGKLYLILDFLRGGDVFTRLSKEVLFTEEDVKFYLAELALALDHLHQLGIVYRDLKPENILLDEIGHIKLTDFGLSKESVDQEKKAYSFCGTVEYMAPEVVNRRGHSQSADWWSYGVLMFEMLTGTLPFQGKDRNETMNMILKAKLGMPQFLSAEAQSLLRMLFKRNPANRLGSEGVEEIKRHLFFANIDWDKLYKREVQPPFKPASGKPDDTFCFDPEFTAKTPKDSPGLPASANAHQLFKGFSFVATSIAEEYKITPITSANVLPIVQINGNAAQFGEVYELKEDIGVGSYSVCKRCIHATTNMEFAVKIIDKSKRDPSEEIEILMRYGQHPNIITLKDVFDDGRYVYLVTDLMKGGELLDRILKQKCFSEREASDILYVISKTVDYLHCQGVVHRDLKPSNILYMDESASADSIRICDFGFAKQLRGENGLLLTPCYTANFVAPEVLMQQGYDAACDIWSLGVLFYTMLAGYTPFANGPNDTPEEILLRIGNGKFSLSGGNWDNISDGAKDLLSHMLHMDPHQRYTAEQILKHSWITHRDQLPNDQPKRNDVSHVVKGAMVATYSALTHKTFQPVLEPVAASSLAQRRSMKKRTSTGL
T1 sequence (P21127 whole entry): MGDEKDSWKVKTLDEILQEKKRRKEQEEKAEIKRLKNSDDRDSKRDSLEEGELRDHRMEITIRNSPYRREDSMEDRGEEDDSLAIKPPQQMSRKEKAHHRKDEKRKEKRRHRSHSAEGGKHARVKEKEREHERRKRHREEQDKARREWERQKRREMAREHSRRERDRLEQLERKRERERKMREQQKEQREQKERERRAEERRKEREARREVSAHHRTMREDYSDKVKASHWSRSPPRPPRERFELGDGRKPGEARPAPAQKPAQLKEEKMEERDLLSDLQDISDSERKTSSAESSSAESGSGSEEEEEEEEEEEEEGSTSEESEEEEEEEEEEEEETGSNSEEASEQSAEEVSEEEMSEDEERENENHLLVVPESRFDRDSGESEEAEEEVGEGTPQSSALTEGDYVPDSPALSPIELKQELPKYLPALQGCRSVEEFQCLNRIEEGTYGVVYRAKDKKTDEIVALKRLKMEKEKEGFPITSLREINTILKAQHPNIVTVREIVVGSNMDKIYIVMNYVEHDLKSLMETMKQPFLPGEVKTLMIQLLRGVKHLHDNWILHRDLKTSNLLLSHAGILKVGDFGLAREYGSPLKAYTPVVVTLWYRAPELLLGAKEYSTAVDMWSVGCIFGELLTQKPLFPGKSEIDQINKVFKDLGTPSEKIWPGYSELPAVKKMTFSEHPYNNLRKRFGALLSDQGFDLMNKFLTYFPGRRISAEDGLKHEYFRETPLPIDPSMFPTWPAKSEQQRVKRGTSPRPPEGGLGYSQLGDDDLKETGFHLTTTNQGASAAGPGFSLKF
T6 sequence (Q15569 whole entry): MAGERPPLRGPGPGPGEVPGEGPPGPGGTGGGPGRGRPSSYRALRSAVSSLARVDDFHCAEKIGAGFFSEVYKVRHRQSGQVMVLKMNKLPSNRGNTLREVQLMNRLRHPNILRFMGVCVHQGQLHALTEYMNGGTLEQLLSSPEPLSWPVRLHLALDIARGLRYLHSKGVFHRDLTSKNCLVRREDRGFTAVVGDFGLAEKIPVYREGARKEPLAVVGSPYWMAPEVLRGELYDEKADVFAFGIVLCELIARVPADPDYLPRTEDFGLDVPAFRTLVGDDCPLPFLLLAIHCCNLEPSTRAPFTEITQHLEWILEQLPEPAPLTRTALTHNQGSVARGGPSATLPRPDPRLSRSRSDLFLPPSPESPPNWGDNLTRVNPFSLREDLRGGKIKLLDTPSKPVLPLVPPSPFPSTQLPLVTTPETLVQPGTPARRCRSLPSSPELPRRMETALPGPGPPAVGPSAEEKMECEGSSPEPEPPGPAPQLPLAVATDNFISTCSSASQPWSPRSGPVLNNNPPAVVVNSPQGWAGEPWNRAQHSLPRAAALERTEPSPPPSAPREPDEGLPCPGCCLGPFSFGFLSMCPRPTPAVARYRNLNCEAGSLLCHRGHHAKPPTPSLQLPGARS

In the case of `Cc1ccc(C(=O)Nc2ccc(CN3CCN(C)CC3)c(C(F)(F)F)c2)cc1C#Cc1cnc2c(Nc3cnn(C)c3)cccn12` [Example 1, 4-methyl-3-((8-((1-methyl-1H-pyrazol-4-yl)amino)imidazo[1,2-a]pyridin-3-yl)ethynyl)-N-(4-((4-methylpiperazin-1-yl)methyl)-3-(trifluoromethyl)phenyl)benzamide], the remaining binding at 1 µM in assay [1] is 20%; in assay [2] it was 0%; in assay [3], 67%; in assay [4], 86%; in assay [5] it was 29%; in assay [6], 26%. In addition, the values for the remaining binding at 1 µM in assay [7], in assay [8] (RSK4 (Kin.Dom.1-N-terminal)) and in assay [8] (RSK4 (Kin.Dom.2-C-terminal)) were 93%, 81% and 59%, respectively.
As to `Cc1ccc(NC(=O)C2(C(=O)Nc3ccc(F)cc3)CC2)cc1C#Cc1cnc2c(Nc3cnn(C(C)C)c3)cccn12` [Example 78], the remaining binding at 1 µM worked out at 100% in assay [1]; 87% in assay [2]; 85% in assay [3]; 100% in assay [4]; 94% in assay [5]; 100% in assay [6]. In addition, the remaining binding at 1 µM was found to be 100% in assay [7], 93% in assay [8] (RSK4 (Kin.Dom.1-N-terminal)) and 98% in assay [8] (RSK4 (Kin.Dom.2-C-terminal)).
As to `Cc1cn(-c2cc(NC(=O)c3ccc(C)c(C#Cc4cnc5c(Nc6cnn(C)c6)cccn45)c3)cc(C(F)(F)F)c2)cn1` [Example 12, 4-methyl-N-(3-(4-methyl-1H-imidazol-1-yl)-5-(trifluoromethyl)phenyl)-3-((8-((1-methyl-1H-pyrazol-4-yl)amino)imidazo[1,2-a]pyridin-3-yl)ethynyl)benzamide], the remaining binding at 1 µM in assay [1] was 80%; in assay [2] it was 27%; in assay [3] it was 76%; in assay [4], 89%; in assay [5], 48%; in assay [6] it was 81%. In addition, the results for the remaining binding at 1 µM in assay [7], in assay [8] (RSK4 (Kin.Dom.1-N-terminal)) and in assay [8] (RSK4 (Kin.Dom.2-C-terminal)) were 70%, 93% and 68%, respectively.
